Laboratory results from patent US11788061B2, “Method for producing mesenchymal stem cells that inhibit proliferation of cancer cells” (priority 2016, dated 2023).

What was measured:
Format in all cases: cell-based, human
Vit.C-MSCs [1] = assay: Evaluation of toxicity of aspirin on Vit.C-MSCs (cck-8); conditions: aspirin concentration of 5 mM or less, 24 hours, cck-8 absorbance at 450 nm
Method: The Vit.C-MSCs cultured in a medium containing vitamin C of Example 1 were seeded on a 96-well cell culture plate at a concentration of 1×10^4 cells/plate, and then incubated overnight for cell adherence and stabilization. Then, the cells were cultured in a fresh RKCM-N medium, that is, keratinocyte-SFM containing 5% FBS, 2 mM NAC, 0.2 mM ascorbic acid, 0.09 mM calcium, 5 ng/ml rEGF, 5 μg/ml insulin and 74 ng/ml hydrocortisone, supplemented with aspirin in various concentrations of 0.005 mM, 0.001 mM, 0.05 mM, 0.1 mM, 0.5 mM, 1 mM, 5 mM and 10 mM, for 24 hours. A cck-8 (cell counting Kit-8, Dojindo) solution (10 μl/100 μl) was added to each well and reacted for 2 hours, and the absorbance at 450 nm was measured using a plate reader (Lonza).

Vit.C-MSCs [2] = assay: Characteristics of Vit.C-MSCs cultured in aspirin-containing medium (microscope, Luna automated cell counter); conditions: aspirin concentration of 1 mM or less, 24 hours
Method: The Vit.C-MSCs cultured in a medium containing vitamin C of Example 1 were incubated for 2 days for adherence and stabilization. Then, the Vit.C-MSCs were cultured in fresh RKCM-N medium supplemented with concentrations of 0.1 mM, 0.5 mM, 1 mM and 10 mM of aspirin for 24 hours. The cell morphologies of Vit.C-MSCs by aspirin were monitored with an […] (100× magnification, Leica DMIL) (FIG. 2), and the proliferation rate, viability and cell size were analyzed using a Luna automated cell counter (Logoy) (FIG. 3).

[3] = test system: CD marker expression on the stem cell surface; assay: Surface CD marker expression by FACS, overall statement; conditions: 0.1 mM, 0.5 mM and 1 mM of aspirin, 24 hours
Method: The Vit.C-MSCs cultured in a medium containing vitamin C were cultured for 2 days for adherence and stabilization, and were cultured in fresh RKCM-N media supplemented with aspirin at concentrations of 0.1 mM, 0.5 mM and 1 mM for 24 hours. The CD marker expression on the stem cell surface in the following Table 2 was compared between two types of MSCs, that is, Vit.C-MSCs and ASP-Vit.C-MSCs cultured in aspirin using FACS.

CC(=O)Oc1ccccc1C(=O)O [aspirin]
cytotoxicity of Vit.C-MSCs (Vit.C-MSCs [1]): almost no cytotoxicity | cell size of stem cells (Vit.C-MSCs [2]): did not affect | morphology of stem cells (Vit.C-MSCs [2]): did not affect | proliferation rate of stem cells (Vit.C-MSCs [2]): did not affect | viability of stem cells (Vit.C-MSCs [2]): did not affect | CD marker expression on the stem cell surface [3]: not changed
